Patent US20040180953A1, “Crystalline form of phenylethanolamine, the preparation thereof and pharmaceutical compositions comprising the same” (priority 2001, published 2004)
Structures can show the parent of a compound that is named as a salt. Values belong to the compound of their own block, whether it stands above or below them.

How the values were obtained:
Format in all cases: physicochemical
[1] = Drying comparison of wet filtration cake in an agitated filter drier
Description: The drying, in an agitated filter drier, of a wet filtration cake of SR58611A of A form results, in less than two hours, in a change in crystalline form and in the production of a cake composed of 90% of C form. To return to the A form, it is then necessary to continue the drying at a temperature of greater than 60° C. with agitation for approximately 48 h. […] Furthermore, the shape of the crystals obtained (thick hexagonal plates) makes it possible to reduce the residual moisture content of the filtration cake to contents of less than 20% and in fact facilitates the drying of the product for the purpose of its use as medicamental active principle.

[2] = Thermodynamic stability of the polymorphic forms maintained in solution or suspension; conditions: room temperature, or more generally less than or equal to 70° C.; whatever the solvent; hydrochloride
Description: Furthermore, in addition to the possibility of having a purer and more homogeneous product, the B form can be obtained with better production efficiency, both with regard to crystallization and with regard to filtration and drying, in particular when it is prepared in propan-2-ol.

[3] = Kinetic conversion of SR58611A polymorphic mixture to B form in propan-2-ol suspension
Description: Polymorphic SR58611 hydrochloride (4.46 g) is suspended at ambient temperature in 0.3 litre of propan-2-ol. After maintaining for 70 h under isothermal conditions, the suspension is composed of SR58611A hydrochloride, B form, >96%. IR spectrum and X-ray diffraction are in agreement. Polymorphic SR58611 hydrochloride (95.2 g) is suspended at 70° C. in 0.3 litre of propan-2-ol. After maintaining for 12 h 30 under isothermal conditions, the suspension is composed of SR58611 hydrochloride, B form, >98%. IR spectrum and X-ray diffraction are in agreement.

change of crystalline form on drying ([1]; drying of filtration cake): not changing crystalline form on drying | residual moisture content of the filtration cake ([1]; thick hexagonal plate crystals): less than 20% | thermodynamic stability relative to the other polymorphs [2]: the most thermodynamically stable form
Structure (SMILES): CCOC(=O)COc1ccc2c(c1)C[C@@H](NC[C@H](O)c1cccc(Cl)c1)CC2.Cl [B form, ethyl [(7S)-7-[(2R)-2-(3-chlorophenyl)-2-hydroxyethylamino]-5,6,7,8-tetrahydronaphth-2-yloxy]-acetate hydrochloride]

thermodynamic stability relative to the other polymorphs [2]: end up by being converted to the B form
Structure (SMILES): CCOC(=O)COc1ccc2c(c1)C[C@@H](NC[C@H](O)c1cccc(Cl)c1)CC2.Cl [C form, ethyl [(7S)-7-[(2R)-2-(3-chlorophenyl)-2-hydroxyethylamino]-5,6,7,8-tetrahydronaphth-2-yloxy]-acetate hydrochloride]

B form content of the suspension after conversion ([3]; suspended at 70° C. in propan-2-ol, 12 h 30 isothermal): > 98% | B form content of the suspension after conversion ([3]; suspended at ambient temperature in propan-2-ol, 70 h isothermal): > 96%
Structure (SMILES): CCOC(=O)COc1ccc2c(c1)C[C@@H](NC[C@H](O)c1cccc(Cl)c1)CC2 [Polymorphic SR58611 hydrochloride, N-[(2S)-7-ethoxycarbonylmethoxy-1,2,3,4-tetrahydronaphth-2-yl]-(2R)-(3-chlorophenyl)-2-hydroxyethanamine hydrochloride]

C form content of the cake after change in crystalline form on drying ([1]; agitated filter drier, wet filtration cake, in less than two hours): 90% | further drying time needed to return to the A form ([1]; drying at greater than 60° C. with agitation): approximately 48 h | thermodynamic stability relative to the other polymorphs [2]: end up by being converted to the B form
Structure (SMILES): CCOC(=O)COc1ccc2c(c1)C[C@@H](NC[C@H](O)c1cccc(Cl)c1)CC2.Cl [A form, ethyl [(7S)-7-[(2R)-2-(3-chlorophenyl)-2-hydroxyethylamino]-5,6,7,8-tetrahydronaphth-2-yloxy]-acetate hydrochloride]
